# Laboratory results published in ChEMBL document CHEMBL4823252 (J Med Chem, 2021).
# Experiments:
# MOLM-13 [1] = assay: Induction of cell cycle arrest in human MOLM-13 cells assessed as accumulation at sub-G1 phase at 10 nM incubated for 24 hrs by flow cytometry (reference value: 4.24%); format: functional
# MOLM-13 [2] = assay: Antiproliferative activity against human quizartinib-resistant MOLM-13 cells at 37 nM incubated for 72 hrs by CCK8 assay relative to control; format: functional
# MV4-11 [3] = assay: Induction of cell cycle arrest in human MV4-11 cells assessed as accumulation at G1 phase at 1 nM incubated for 24 hrs by flow cytometry (reference value: 64.73%); format: functional
# MV4-11 [4] = assay: Induction of cell cycle arrest in human MV4-11 cells assessed as accumulation at G2/M phase at 10 nM incubated for 24 hrs by flow cytometry (reference value: 7.29%); format: functional
# MOLM-13 [5] = assay: Antiproliferative activity against human sunitinib-resistant MOLM-13 cells at 1000 nM incubated for 72 hrs by CCK8 assay relative to control; format: functional
# MOLM-13 [6] = assay: Induction of apoptosis in human MOLM-13 cells assessed as late apoptotic cells at 100 nM incubated for 24 hrs by flow cytometry (reference value: 4.54%); format: functional
# MV4-11 [7] = assay: Induction of apoptosis in human MV4-11 cells assessed as early apoptotic cells at 10 nM incubated for 24 hrs by flow cytometry (reference value: 0.31%); format: functional
# MV4-11 [8] = assay: Induction of cell cycle arrest in human MV4-11 cells assessed as accumulation at S phase at 10 nM incubated for 24 hrs by flow cytometry (reference value: 16.31%); format: functional
# MOLM-13 [9] = assay: Induction of cell cycle arrest in human MOLM-13 cells assessed as accumulation at G1 phase at 100 nM incubated for 24 hrs by flow cytometry (reference value: 69.08%); format: functional
# MOLM-13 [10] = assay: Antiproliferative activity against human quizartinib-resistant MOLM-13 cells at 111 nM incubated for 72 hrs by CCK8 assay relative to control; format: functional
# MV4-11 [11] = assay: Induction of apoptosis in human MV4-11 cells assessed as viable cells at 10 nM incubated for 24 hrs by flow cytometry (reference value: 98.86%); format: functional; settings: read-out: Activity
# MOLM-13 [12] = assay: Antiproliferative activity against human sunitinib-resistant MOLM-13 cells at 37 nM incubated for 72 hrs by CCK8 assay relative to control; format: functional
# MOLM-13 [13] = assay: Antiproliferative activity against human sunitinib-resistant MOLM-13 cells at 111 nM incubated for 72 hrs by CCK8 assay relative to control; format: functional
# MV4-11 [14] = assay: Induction of apoptosis in human MV4-11 cells assessed as early apoptotic cells at 100 nM incubated for 24 hrs by flow cytometry (reference value: 0.31%); format: functional
# MV4-11 [15] = assay: Induction of cell cycle arrest in human MV4-11 cells assessed as accumulation at G2/M phase at 1 nM incubated for 24 hrs by flow cytometry (reference value: 7.29%); format: functional
# MOLM-13 [16] = assay: Induction of apoptosis in human MOLM-13 cells assessed as early apoptotic cells at 100 nM incubated for 24 hrs by flow cytometry (reference value: 2.18%); format: functional
# MOLM-13 [17] = assay: Induction of cell cycle arrest in human MOLM-13 cells assessed as accumulation at S phase at 1 nM incubated for 24 hrs by flow cytometry (reference value: 16.28%); format: functional
# MV4-11 [18] = assay: Induction of cell cycle arrest in human MV4-11 cells assessed as accumulation at G2/M phase at 100 nM incubated for 24 hrs by flow cytometry (reference value: 7.29%); format: functional
# MOLM-13 [19] = assay: Antiproliferative activity against human sunitinib-resistant MOLM-13 cells at 333 nM incubated for 72 hrs by CCK8 assay relative to control; format: functional
# MOLM-13 [20] = assay: Antiproliferative activity against human quizartinib-resistant MOLM-13 cells at 1000 nM incubated for 72 hrs by CCK8 assay relative to control; format: functional
# MV4-11 [21] = assay: Induction of apoptosis in human MV4-11 cells assessed as late apoptotic cells at 10 nM incubated for 24 hrs by flow cytometry (reference value: 0.58%); format: functional
# MV4-11 [22] = assay: Induction of cell cycle arrest in human MV4-11 cells assessed as accumulation at G1 phase at 100 nM incubated for 24 hrs by flow cytometry (reference value: 64.73%); format: functional
# MV4-11 [23] = assay: Induction of apoptosis in human MV4-11 cells assessed as early apoptotic cells at 1 nM incubated for 24 hrs by flow cytometry (reference value: 0.31%); format: functional
# MV4-11 [24] = assay: Antiproliferative activity against human MV4-11 cells incubated for 72 hrs by Cell Counting Kit-8 assay; format: functional, cell-based; settings: MV4-11, 72 h
# MOLM-13 [25] = assay: Induction of apoptosis in human MOLM-13 cells assessed as late apoptotic cells at 1 nM incubated for 24 hrs by flow cytometry (reference value: 4.54%); format: functional
# MOLM-13 [26] = assay: Induction of apoptosis in human MOLM-13 cells assessed as early apoptotic cells at 10 nM incubated for 24 hrs by flow cytometry (reference value: 2.18%); format: functional
# MV4-11 [27] = assay: Induction of apoptosis in human MV4-11 cells assessed as necrotic cells at 100 nM incubated for 24 hrs by flow cytometry (reference value: 0.25%); format: functional
# MOLM-13 [28] = assay: Induction of cell cycle arrest in human MOLM-13 cells assessed as accumulation at G1 phase at 1 nM incubated for 24 hrs by flow cytometry (reference value: 69.08%); format: functional
# MV4-11 [29] = assay: Induction of cell cycle arrest in human MV4-11 cells assessed as accumulation at S phase at 1 nM incubated for 24 hrs by flow cytometry (reference value: 16.31%); format: functional
# MOLM-13 [30] = assay: Induction of apoptosis in human MOLM-13 cells assessed as necrotic cells at 100 nM incubated for 24 hrs by flow cytometry (reference value: 0.45%); format: functional
# MV4-11 [31] = assay: Induction of apoptosis in human MV4-11 cells assessed as necrotic cells at 1 nM incubated for 24 hrs by flow cytometry (reference value: 0.25%); format: functional
# MOLM-13 [32] = assay: Induction of apoptosis in human MOLM-13 cells assessed as viable cells at 100 nM incubated for 24 hrs by flow cytometry (reference value: 92.83%); format: functional; settings: read-out: Activity
# MV4-11 [33] = assay: Induction of apoptosis in human MV4-11 cells assessed as viable cells at 1 nM incubated for 24 hrs by flow cytometry (reference value: 98.26%); format: functional; settings: read-out: Activity
# MV4-11 [34] = assay: Induction of cell cycle arrest in human MV4-11 cells assessed as accumulation at S phase at 100 nM incubated for 24 hrs by flow cytometry (reference value: 16.31%); format: functional
# MOLM-13 [35] = assay: Induction of apoptosis in human MOLM-13 cells assessed as late apoptotic cells at 10 nM incubated for 24 hrs by flow cytometry (reference value: 4.54%); format: functional
# MOLM-13 [36] = assay: Antiproliferative activity against human MOLM-13 cells incubated for 72 hrs by Cell Counting Kit-8 assay; format: functional, cell-based; settings: MOLM-13, 72 h
# MOLM-13 [37] = assay: Induction of cell cycle arrest in human MOLM-13 cells assessed as accumulation at sub-G1 phase at 1 nM incubated for 24 hrs by flow cytometry (reference value: 4.24%); format: functional
# MOLM-13 [38] = assay: Antiproliferative activity against human quizartinib-resistant MOLM-13 cells at 4 nM incubated for 72 hrs by CCK8 assay relative to control; format: functional
# MOLM-13 [39] = assay: Induction of apoptosis in human MOLM-13 cells assessed as necrotic apoptotic cells at 1 nM incubated for 24 hrs by flow cytometry (reference value: 0.45%); format: functional
Structure (SMILES),Activity (MOLM-13 [1]) [%],Activity (MOLM-13 [2]) [%],Activity (MV4-11 [3]) [%],Activity (MV4-11 [4]) [%],Activity (MOLM-13 [5]) [%],Activity (MOLM-13 [6]) [%],Activity (MV4-11 [7]) [%],Activity (MV4-11 [8]) [%],Activity (MOLM-13 [9]) [%],Activity (MOLM-13 [10]) [%],viability at 0.01 µM (MV4-11 [11]) [%],Activity (MOLM-13 [12]) [%],Activity (MOLM-13 [13]) [%],Activity (MV4-11 [14]) [%],Activity (MV4-11 [15]) [%],Activity (MOLM-13 [16]) [%],Activity (MOLM-13 [17]) [%],Activity (MV4-11 [18]) [%],Activity (MOLM-13 [19]) [%],Activity (MOLM-13 [20]) [%],also measured
CCN(CC)CCNC(=O)c1c(C)[nH]c(/C=C2\C(=O)Nc3ccc(F)cc32)c1C [SUNITINIB],24.17,-0.5,66.78,2.53,25.9,23.49,2.79,2.69,41.02,0.5,89.4,2.6,1.3,9.64,5.86,31.1,16.42,2.68,6.3,26.6,Activity (MV4-11 [21]): 6.58%; Activity (MV4-11 [22]): 60.29%; Activity (MV4-11 [23]): 0.29%; IC50 (MV4-11 [24]): 31.5 nM; Activity (MOLM-13 [25]): 3.32%; Activity (MOLM-13 [26]): 19.36%; Activity (MV4-11 [27]): 1.71%; Activity (MOLM-13 [28]): 65.44%; Activity (MV4-11 [29]): 13.27%; Activity (MOLM-13 [30]): 1.14%; Activity (MV4-11 [31]): 0.32%; viability at 0.1 µM (MOLM-13 [32]): 44.3%; viability at 0.001 µM (MV4-11 [33]): 98.4%; Activity (MV4-11 [34]): 3.91%; Activity (MOLM-13 [35]): 9.47%; IC50 (MOLM-13 [36]): 69.6 nM; Activity (MOLM-13 [37]): 6.13%; Activity (MOLM-13 [38]): -0.6%; Activity (MOLM-13 [39]): 0.24%
Cc1c(NC(=O)CCN2CCCC2)c[nH]c1/C=C1\C(=O)Nc2ccc(F)cc21,30.16,3.8,69.79,2,67.8,20.79,3.5,2.41,47.75,2.9,88,4.7,4.9,17.98,3.98,34.68,15.09,2.51,18.6,60.3,Activity (MV4-11 [21]): 6.55%; Activity (MV4-11 [22]): 62.23%; Activity (MV4-11 [23]): 0.39%; IC50 (MV4-11 [24]): 23.5 nM; Activity (MOLM-13 [25]): 4.3%; Activity (MOLM-13 [26]): 22.66%; Activity (MV4-11 [27]): 1.57%; Activity (MOLM-13 [28]): 68.95%; Activity (MV4-11 [29]): 11.6%; Activity (MOLM-13 [30]): 0.75%; Activity (MV4-11 [31]): 1.38%; viability at 0.1 µM (MOLM-13 [32]): 43.8%; viability at 0.001 µM (MV4-11 [33]): 97.2%; Activity (MV4-11 [34]): 4.06%; Activity (MOLM-13 [35]): 14.5%; IC50 (MOLM-13 [36]): 35.5 nM; Activity (MOLM-13 [37]): 6.76%; Activity (MOLM-13 [38]): 3.3%; Activity (MOLM-13 [39]): 0.22%
